Test results reported in patent publication US20140329863A1 (priority 2011, published 2014).
Where two headings read alike, the source gives them in different places.

Key:
[1] = test system: PrP^Sc in dividing ScN2a-cl3 cells; format: cell-based, mouse; set-up: Dividing ELISA pEC50 (μM) 1st Expt. / Dividing ELISA pEC50 (μM) 2nd Expt. / Dividing ELISA pEC50 (μM) 3rd Expt. / Dividing ELISA pEC50 (μM) Mean: unit not given here
[2] = test system: PrP^Sc in dividing ScN2a-c13 cells; conditions: dividing ScN2a-c13 cells; for EC50: read-out: EC50 (ELISA), reduction of PrP^Sc load
[3] = test system: PrP^Sc in nondividing ScN2a-cl3 cells; format: cell-based, mouse; conditions: read-out: Non-Dividing ELISA EC50 (μM) Mean (n = 3); ScN2a-c13 non-dividing cells; mean n = 3
[4] = test system: N2a-cl3 cells; test: cells; conditions: Mus musculus, N2a-cl3, read-out: Dividing Calcein EC50 (μM) Mean (n = 3)
[5] = test system: PrP^C in T98G cells; format: cell-based, human
[6] = test system: T98G cells; test: cells; format: cell-based, human; conditions: Homo sapiens, T98G, read-out: EC50 (μM) Calcein
[7] = Hepatic microsomal stability, mouse; conditions: mouse liver microsomes
[8] = Hepatic microsomal stability, human; conditions: human liver microsomes
[9] = ScN2a-cl3 dividing cells, 1st determination
[10] = ScN2a-cl3 dividing cells, 2nd determination
[11] = ScN2a-cl3 dividing cells, 3rd determination
[12] = read-out: Dividing ELISA EC50 (μM) 1st Expt., ScN2a-cl3 dividing cells, 1st determination
[13] = read-out: Dividing ELISA EC50 (μM) 2nd Expt., ScN2a-cl3 dividing cells, 2nd determination
[14] = read-out: Dividing ELISA EC50 (μM) 3rd Expt., ScN2a-cl3 dividing cells, 3rd determination
[15] = read-out: Dividing ELISA EC50 (μM) Mean, ScN2a-cl3 dividing cells, mean of three determinations
[16] = ScN2a-cl3 dividing cells, mean of three determinations

## CC(=O)c1ccc(NC(=O)c2sc3nc4c(cc3c2N)CCCC4)cc1 [IND-0024609]
[1]; read-out: Antiprion activity EC50, thienopyridine analogs
  EC50: > 10 µM
[2]
  antiprion activity (in words): inactive

## Cc1ccc(Nc2nc(C)cs2)nc1 [compound 29, (5-Methylpyridin-2-yl)-(4-methylthiazol-2-yl)-amine]
[1]; [9]
  Dividing ELISA pEC50 (μM) 1st Expt.: >4.5
[1]; [10]
  Dividing ELISA pEC50 (μM) 2nd Expt.: >4.5
[1]; [11]
  Dividing ELISA pEC50 (μM) 3rd Expt.: >4.5
[1]; [12]
  EC50: > 32 µM
[1]; [13]
  EC50: > 32 µM
[1]; [14]
  EC50: > 32 µM
[1]; [15]
  EC50: > 32 µM
[3]
  EC50: > 32 µM
other
  melting point: 212 to 214 °C
[2]
  antiprion activity (in words): inactive
[4]
  EC50: > 32 µM

## COc1ccc(Nc2nc(-c3cc(-c4ccccc4)no3)cs2)nc1 [compound 40, (5-Methoxypyridin-2-yl)-[4-(3-phenylisoxazol-5-yl)-thiazol-2-yl]-amine]
[1]; [9]
  Dividing ELISA pEC50 (μM) 1st Expt.: 6.40
[1]; [10]
  Dividing ELISA pEC50 (μM) 2nd Expt.: 6.96
[1]; [11]
  Dividing ELISA pEC50 (μM) 3rd Expt.: 6.74
[1]; [16]
  Dividing ELISA pEC50 (μM) Mean: 6.70
[1]; [12]
  EC50: 0.395 µM
[1]; [13]
  EC50: 0.11 µM
[1]; [14]
  EC50: 0.183 µM
[1]; [15]
  EC50: 0.229 µM
[3]
  EC50: > 32 µM
other
  melting point: 203 to 205 °C
[2]
  EC50: 0.23 µM
[4]
  EC50: > 32 µM

## CNc1nc(-c2ccc(OC)c(OC)c2)cs1 [compound 5, 4-(3,4-dimethoxyphenyl)-N-methyl-1,3-thiazol-2-amine]
[1]; [9]
  Dividing ELISA pEC50 (μM) 1st Expt.: >4.5
[1]; [10]
  Dividing ELISA pEC50 (μM) 2nd Expt.: >4.5
[1]; [11]
  Dividing ELISA pEC50 (μM) 3rd Expt.: >4.5
[1]; [12]
  EC50: > 32 µM
[1]; [13]
  EC50: > 32 µM
[1]; [14]
  EC50: > 32 µM
[1]; [15]
  EC50: > 32 µM
[3]
  EC50: > 32 µM
other
  melting point: 120 to 123 °C
[2]
  antiprion activity (in words): without significant activity
[4]
  EC50: > 32 µM

## COc1ccc(-c2csc(Nc3cc4ccccc4cn3)n2)cc1 [compound 30, Isoquinolin-3-yl-[4-(4-methoxyphenyl)-thiazol-2-yl]-amine]
[1]; [9]
  Dividing ELISA pEC50 (μM) 1st Expt.: 6.65
[1]; [10]
  Dividing ELISA pEC50 (μM) 2nd Expt.: 6.41
[1]; [11]
  Dividing ELISA pEC50 (μM) 3rd Expt.: 6.38
[1]; [16]
  Dividing ELISA pEC50 (μM) Mean: 6.48
[1]; [12]
  EC50: 0.226 µM
[1]; [13]
  EC50: 0.385 µM
[1]; [14]
  EC50: 0.414 µM
[1]; [15]
  EC50: 0.342 µM
[3]
  EC50: > 32 µM
other
  melting point: 224 to 228 °C
[2]
  EC50: 0.34 µM
[4]
  EC50: > 32 µM

## Cc1csc(Nc2cc3ccccc3cn2)n1 [compound 36, Isoquinolin-3-yl-(4-methylthiazol-2-yl)-amine]
[1]; [9]
  Dividing ELISA pEC50 (μM) 1st Expt.: >4.5
[1]; [10]
  Dividing ELISA pEC50 (μM) 2nd Expt.: >4.5
[1]; [11]
  Dividing ELISA pEC50 (μM) 3rd Expt.: >4.5
[1]; [12]
  EC50: > 32 µM
[1]; [13]
  EC50: > 32 µM
[1]; [14]
  EC50: > 32 µM
[1]; [15]
  EC50: > 32 µM
[3]
  EC50: > 32 µM
other
  melting point: 212 to 215 °C
[2]
  antiprion activity (in words): inactive
[4]
  EC50: > 32 µM

## O=C(Cc1ccc(-c2ccccc2)cc1)NCc1ccccc1 [IND116065]
[5]
  Potency relative to the bromo analog (IND61769): 10 times
[5]; read-out: EC50 (μM) ELISA
  EC50: 0.267 µM
[5]; read-out: EC50 (μM) ELISA potency, PrP^C in T98G cells
  EC50: 0.233 µM
[6]
  EC50: > 10 µM
[7]; predicted hepatic extraction
  Hepatic Extraction Ratio Mouse: 0.83
[7]; mouse, pH 7.4
  half-life at 1 μM: 12.3 min
[8]; predicted hepatic extraction
  Hepatic Extraction Ratio Human: 0.86
[8]; human, pH 7.4
  half-life at 1 μM: 11.1 min

## FC(F)(F)c1csc(Nc2cc3ccccc3cn2)n1 [compound 37, Isoquinolin-3-yl-(4-trifluoromethylthiazol-2-yl)-amine]
[1]; [9]
  Dividing ELISA pEC50 (μM) 1st Expt.: 5.05
[1]; [10]
  Dividing ELISA pEC50 (μM) 2nd Expt.: 5.14
[1]; [11]
  Dividing ELISA pEC50 (μM) 3rd Expt.: 5.01
[1]; [16]
  Dividing ELISA pEC50 (μM) Mean: 5.07
[1]; [12]
  EC50: 9 µM
[1]; [13]
  EC50: 7.26 µM
[1]; [14]
  EC50: 9.71 µM
[1]; [15]
  EC50: 8.66 µM
[3]
  EC50: > 32 µM
other
  melting point: 200 to 203 °C
[2]
  antiprion activity (in words): less potent
[4]
  EC50: > 32 µM

## COc1ccc(-c2csc(Nc3cccnc3)n2)cc1OC [compound 7, [4-(3,4-dimethoxyphenyl)-thiazol-2-yl]pyridin-3-yl-amine]
[1]; [9]
  Dividing ELISA pEC50 (μM) 1st Expt.: 5.85
[1]; [10]
  Dividing ELISA pEC50 (μM) 2nd Expt.: 5.94
[1]; [11]
  Dividing ELISA pEC50 (μM) 3rd Expt.: 5.96
[1]; [16]
  Dividing ELISA pEC50 (μM) Mean: 5.92
[1]; [12]
  EC50: 1.41 µM
[1]; [13]
  EC50: 1.16 µM
[1]; [14]
  EC50: 1.1 µM
[1]; [15]
  EC50: 1.22 µM
[3]
  EC50: > 32 µM
other
  melting point: 251 to 254 °C
[2]
  EC50: 1.22 µM
[4]
  EC50: > 32 µM

## FC(F)(F)Oc1ccc(-c2csc(Nc3cc4ccccc4cn3)n2)cc1 [compound 31, Isoquinolin-3-yl-[4-(4-trifluoromethoxyphenyl)-thiazol-2-yl]-amine]
[1]; [9]
  Dividing ELISA pEC50 (μM) 1st Expt.: >4.5
[1]; [10]
  Dividing ELISA pEC50 (μM) 2nd Expt.: >4.5
[1]; [11]
  Dividing ELISA pEC50 (μM) 3rd Expt.: >4.5
[1]; [12]
  EC50: > 32 µM
[1]; [13]
  EC50: > 32 µM
[1]; [14]
  EC50: > 32 µM
[1]; [15]
  EC50: > 32 µM
[3]
  EC50: > 32 µM
other
  melting point: 269 to 271 °C
[2]
  antiprion activity (in words): inactive
[4]
  EC50: > 32 µM

## COc1ccnc(Nc2nc(-c3cc(-c4ccccc4)no3)cs2)c1 [compound 41, (4-Methoxypyridin-2-yl)-[4-(3-phenylisoxazol-5-yl)-thiazol-2-yl]-amine]
[1]; [9]
  Dividing ELISA pEC50 (μM) 1st Expt.: 6.43
[1]; [10]
  Dividing ELISA pEC50 (μM) 2nd Expt.: 6.78
[1]; [11]
  Dividing ELISA pEC50 (μM) 3rd Expt.: 6.66
[1]; [16]
  Dividing ELISA pEC50 (μM) Mean: 6.62
[1]; [12]
  EC50: 0.369 µM
[1]; [13]
  EC50: 0.166 µM
[1]; [14]
  EC50: 0.219 µM
[1]; [15]
  EC50: 0.251 µM
[3]
  EC50: > 32 µM
other
  melting point: 177 to 179 °C
[2]
  EC50: 0.25 µM
[4]
  EC50: > 32 µM

## O=C(Cc1ccc(Cl)cc1)NCc1ccccc1 [IND126416]
[5]; read-out: EC50 (μM) ELISA
  EC50: > 10 µM
[5]; read-out: EC50, PrP^C ELISA in T98G cells
  EC50: > 10 µM
[6]
  EC50: > 10 µM
